Test results taken from US20060269938A1, “Polynucleotides encoding insect plasma membrane ca2+ ATPase and uses thereof” (priority 2005, published 2006).

Key:
[1] = target: recombinant Heliothis virescens PMCA; experiment: PMCA activity assay, luciferase-luciferin luminescence measurement of remaining ATP; type: biochemical
Experimental: The assay for PMCA is based on the use of the luciferase-luciferin luminescence reaction to measure ATP. PMCA hydrolyzes ATP in the presence of Ca^2+and the ATP that remains is measured. Membrane vesicles from Sf9 cells expressing recombinant Heliothis virescens PMCA are provided with the assay.
The assay protocol is designed for a 384-well microtiter plate format, but other multi-well formats or other formats may also be used. The reaction is started by the addition of the PMCA enzyme. The negative control reactions contain eosin, an inhibitor of PMCA. Reaction mixtures are incubated at room temperature (22-24° C.) for 60 minutes, followed by the addition of the luciferase-luciferin mix. The plates are immediately read for luminescence.
The luciferin-luciferase readout measures the concentration of ATP in reaction mixtures. Light emission by the luciferase is proportional to the concentration of ATP when its value is less than 0.010 mM. PMCA consumes ATP in a Ca^2+-dependent hydrolysis reaction. […]
A volume of 0.005 mL of the HI solution increasing concentrations of eosin was placed in the wells of a 384-well microtiter plate, and a volume of 0.020 mL of the H2 solution was added. […] A volume of 0.035 mL of the H4 reaction mixture was then added to each well of the plate and the luminescence was measured. The decrease in relative light units (RLU) in reaction time t=60 minutes was measured. […]

PMCA = experiment: pyruvate kinase/lactate dehydrogenase-coupled assay that measures ADP formation; type: biochemical, Heliothis virescens; settings: fit to simple hyperbolic equation; decrease in absorbance at 340 nm; PMCA 0.20 mg/mL; FIG. 3; read-out: K1/2 for ATP, PMCA reaction rate
Experimental: The PMCA reaction rate is dependent on the ATP concentration. The K1/2 for ATP was measured using a pyruvate kinase/lactate dehydrogenase-coupled assay that measures ADP formation. The final concentrations of PMCA and ATP were […]. The rates of decrease in absorbance at 340 nm were measured for each concentration of ATP. The line gives the fit to a simple hyperbolic equation with K1/2=0.013 mM and amplitude=0.022 OD/min. Vmax =50.0 nmol.min^−1.mg^−1. was obtained for PMCA activity under the conditions described.

For O=C1OC2(c3ccccc31)c1cc(Br)c(O)c(Br)c1Oc1c2cc(Br)c(O)c1Br [eosin, reference compound], the IC50 ([1]; membrane vesicles from Sf9 cells, room temperature (22-24° C.), 60 minutes, FIG. 5, read-out: IC50 of inhibition of PMCA activity (rates of ATP consumption)) was 12 nM.
In the case of [Ca+2] [Ca^2+], the “K1/2 for Ca2+, PMCA reaction rate” value ([1]; fit to simple hyperbolic equation, rates of decrease in RLU, ATP 0.010 mM, PMCA 0.010 mg/mL, FIG. 4) is reported as 1.5 µM.
In the case of Nc1ncnc2c1ncn2[C@@H]1O[C@H](COP(=O)(O)OP(=O)(O)OP(=O)(O)O)[C@@H](O)[C@H]1O [ATP], the Km (PMCA) is reported as 13 µM.
